Results from EP1480941B1, “UREA DERIVATIVES AS HIV ASPARTYL PROTEASE INHIBITORS” (priority 2002, dated 2003).
Where two headings read alike, the source gives them in different places.

Tests used:
[1] = tested on: MT-4; assay: Cytotoxicity assay in vitro (MTT assay, virus omitted); format: cell-based
Text: (§1) Anti-viral and cytotoxicity assays in vitro
(§2) We also use some WT clinical strains.

[2] = tested on: laboratory viral strain NL4.3; assay: Anti-viral assay in vitro (MTT assay on infected MT-4 cells); format: cell-based, HIV-1; conditions: Human immunodeficiency virus 1, MT4, 144 h, infected MT-4 cells incubated six days, average of at least two determinations
Text: as §1, §2

[3] = target: HIV protease (Human immunodeficiency virus type 1 group M subtype B, UniProt P04585); assay: Enzymatic (fluorometric FRET) assay for determining the inhibition constant (Ki); format: biochemical; conditions: EDANS/DABCYL substrate, equation of Henderson
Text: Enzymatic assay for determining the inhibition constant (Ki) of synthetic compounds targeting the HIV protease
This is a fluorometric assay based on the cleavage by protease of a substrate carrying a donor group (EDANS) and an acceptor group (DABCYL) on each side of the cleavage site, interacting together through fluorescence resonance energy transfer (FRET) as described by Matayoshi et al. (Science 247:[…], 1990).
After calculation of Vo and Vi, the inhibition constant (Ki) of the compound is determined using the equation of Henderson: (Vo)/(Vi) = 1 + ([I])/(Kiapp) Where Ki = (Kiapp)/((1 + [S])/(Km)) [formula] where Vo = the enzyme's initial velocity Vi = the enzyme velocity in the presence of the inhibitory compound, [I] = inhibitor concentration, [S] = substrate concentration, Km = Michaelis-Menten constant and Kiapp = apparent Ki
Graphs are traced and the Ki determined using GraphPad Prism software v. 3.0.

[4] = cell culture IC50, same MTT assay with virus omitted, average of at least two determinations

`Cc1ccc(S(=O)(=O)N(CC(C)C)[C@H](CO)CCCCNC(=O)N(Cc2ccccc2)Cc2ccccc2[N+](=O)[O-])cc1` [Example 59, (2S) 2-N-isobutyl-2-N-(4-methylbenzenesulfonyl)-6-N-[N'-benzyl-N'-(2-nitrobenzyl)aminocarbonyl]-2,6-diaminohexanol] was tested, and the CCIC50 [1, 4] was 4.6 µM and the EC50 [2] was 385 nM.

Compound `Cc1ccc(S(=O)(=O)N(CC(C)C)[C@H](CO)CCCCNC(=O)N(Cc2ccccc2)Cc2cccc([N+](=O)[O-])c2)cc1` [Example 60, (2S) 2-N-isobutyl-2-N-(4-methylbenzenesulfonyl)-6-N-[N'-benzyl-N'-(3-nitrobenzyl)aminocarbonyl]-2,6-diaminohexanol] has a CCIC50 [1, 4] of 4.6 µM and an EC50 [2] of 1800 nM.

Work on `Cc1ccc(S(=O)(=O)N(CC(C)C)[C@H](CO)CCCCNC(=O)N(Cc2ccccc2)Cc2ccc([N+](=O)[O-])cc2)cc1` [Example 61, (2S) 2-N-isobutyl-2-N-(4-methylbenzenesulfonyl)-6-N-[N'-benzyl-N'-(4-nitrobenzyl)aminocarbonyl]-2,6-diaminohexanol] yielded a CCIC50 [1, 4] of 5.1 µM and an EC50 [2] of 3800 nM.

With `CC(C)CN([C@H](CO)CCCCNC(=O)N(Cc1ccc(F)cc1)Cc1ccc2c(c1)OCO2)S(=O)(=O)c1ccc(N)cc1` [Example 67, (2S) 2-N-(4-aminobenzenesulfonyl)-2-N-isobutyl-6-N-[N'-(4-fluorobenzyl)-N'-piperonylaminocarbonyl]-2,6-diaminohexanol] the CCIC50 [1, 4] was 11 µM and the EC50 [2] was 488 nM.

With `CC(C)CN([C@H](CO)CCCCNC(=O)N(Cc1ccccc1)Cc1ccc2c(c1)OCO2)S(=O)(=O)c1ccc(N)cc1` [Example 82, (2S) 2-N-(4-aminobenzenesulfonyl)-2-N-isobutyl-6-N-(N'-benzyl-N'-piperonylaminocarbonyl)-2,6-diaminohexanol] the CCIC50 [1, 4] was 12.5 µM and the EC50 [2] was 1400 nM.

For `CC(C)CN([C@H](CO)CCCCNC(=O)N(Cc1ccc2c(c1)OCO2)Cc1ccc2c(c1)OCO2)S(=O)(=O)c1ccc(N)cc1` [Example 85, (2S) 2-N-(4-aminobenzenesulfonyl)-2-N-isobutyl-6-N-(N',N'-dipiperonylaminocarbonyl)-2,6-diaminohexanol], the CCIC50 [1, 4] was 13.1 µM and the EC50 [2] was 130 nM.

With `CC(C)CCN([C@H](CO)CCCCNC(=O)N(Cc1ccccc1)Cc1ccccc1)S(=O)(=O)c1ccc(N)cc1` [Example 86, (2S) 2-N-(4-aminobenzenesulfonyl)-2-N-(3-methylbutyl)-6-N-(N'-N'-dibenzylaminocarbonyl)-2,6-diaminohexanol] the Ki ([3]; Ki) was 5.8 nM.

Compound `CC(C)CCN([C@H](CO)CCCCNC(=O)N(Cc1ccc2c(c1)OCO2)Cc1cccs1)S(=O)(=O)c1ccc(N)cc1` [Example 87, (2S) 2-N-(4-aminobenzenesulfonyl)-2-N-(3-methylbutyl)-6-N-[N'-(2-thiophenemethyl)-N'-piperonylaminocarbonyl]-2,6-diaminohexanol] has a Ki ([3]; Ki) of 1.4 nM.

Work on `COc1ccc(CN(Cc2ccc3c(c2)OCO3)C(=O)NCCCC[C@@H](CO)N(CCC(C)C)S(=O)(=O)c2ccc(N)cc2)cc1` [Example 88, (2S) 2-N-(4-aminobenzenesulfonyl)-2-N-(3-methylbutyl)-6-N-[N'-(4-methoxybenzyl)-N'-piperonylaminocarbonyl]-2,6-diaminohexanol] yielded a Ki ([3]; Ki) of 2.9 nM.

With `CC(C)CN([C@H](CO)CCCCNC(=O)N(Cc1ccccc1)Cc1cccc2c1OCO2)S(=O)(=O)c1ccc(N)cc1` [Example 91, (2S) 2-N-(4-aminobenzenesulfonyl)-2-N-isobutyl-6-N-[N'-benzyl-N'-(2,3-methylenedioxy)benzylaminocarbonyl]-2,6-diaminohexanol] the Ki ([3]; Ki) was 5.4 nM.

`CC(C)CN([C@H](CO)CCCCNC(=O)N(Cc1ccccc1)Cc1ccc(F)cc1F)S(=O)(=O)c1ccc(N)cc1` [Example 93, (2S) 2-N-(4-aminobenzenesulfonyl)-2-N-isobutyl-6-N-[N'-benzyl-N'-(2,4-difluorobenzyl)aminocarbonyl]-2,6-diaminohexanol] gave a Ki ([3]; Ki) of 12 nM.

Work on `CC(C)CCN([C@H](CO)CCCCNC(=O)N(Cc1ccncc1)Cc1ccc2c(c1)OCO2)S(=O)(=O)c1ccc(N)cc1` [Example 95, (2S) 2-N-(4-aminobenzenesulfonyl)-2-N-(3-methylbutyl)-6-N-[N'-(4-picolyl)-N'-piperonylaminocarbonyl]-2,6-diaminohexanol] yielded a CCIC50 ([1]; human, 6 days) of 28.8 µM, an EC50 [2] of 550 nM and a Ki ([3]; Ki) of 7.1 nM.

In the case of `CC(C)CCN([C@H](CO)CCCCNC(=O)N(Cc1ccccc1)Cc1cccc2c1OCO2)S(=O)(=O)c1ccc(N)cc1` [Example 96, (2S) 2-N-(4-aminobenzenesulfonyl)-2-N-(3-methylbutyl)-6-N-[N'-benzyl-N'-(2,3-methylenedioxy)benzylaminocarbonyl]-2,6-diaminohexanol], the Ki ([3]; Ki) is reported as 4 nM.

`CCC(C)CN([C@H](CO)CCCCNC(=O)N(Cc1ccccc1)Cc1ccc2c(c1)OCO2)S(=O)(=O)c1ccc(N)cc1` (stereo partly drawn) [Example 98, (2S) 2-N-(4-aminobenzenesulfonyl)-2-N-(2-methylbutyl)-6-N-[N'-benzyl-N'-piperonylaminocarbonyl]-2,6-diaminohexanol] was tested, and the Ki [3] was 13 nM.

In the case of `CCC(C)CN(C(CO)CCCCNC(=O)N(Cc1ccc(OC)cc1)Cc1ccc2c(c1)OCO2)S(=O)(=O)c1ccc(N)cc1` [Example 100, (2S) 2-N-(4-aminobenzenesulfonyl)-2-N-(2-methylbutyl)-6-N-[N'-(4-methoxybenzyl)-N'-piperonylaminocarbonyl]-2,6-diaminohexanol], the Ki ([3]; read-out: Ki) is reported as greater than 300 nM.

`CC(C)CCN([C@H](CO)CCCCNC(=O)N(Cc1ccccc1)Cc1ccc2c(c1)OCO2)S(=O)(=O)c1ccc(N)cc1` [Example 101, (2S) 2-N-(4-aminobenzenesulfonyl)-2-N-(3-methylbutyl)-6-N-[N'-benzyl-N'-piperonylaminocarbonyl]-2,6-diaminohexanol] gave a Ki ([3]; Ki) of 4.1 nM.

Work on `CC(C)CCN([C@H](CO)CCCCNC(=O)N(Cc1ccc(F)cc1)Cc1ccc2c(c1)OCO2)S(=O)(=O)c1ccc(N)cc1` [Example 102, (2S) 2-N-(4-aminobenzenesulfonyl)-2-N-(3-methylbutyl)-6-N-[N'-(4-fluorobenzyl)-N'-piperonylaminocarbonyl]-2,6-diaminohexanol] yielded a CCIC50 ([1]; human, 6 days) of 24.4 µM, an EC50 [2] of 1200 nM and a Ki ([3]; Ki) of 4.9 nM.

`CC(C)CCN([C@H](CO)CCCCNC(=O)N(Cc1ccc(F)cc1)Cc1ccc2c(c1)OCCO2)S(=O)(=O)c1ccc(N)cc1` [Example 103, (2S) 2-N-(4-aminobenzenesulfonyl)-2-N-(3-methylbutyl)-6-N-[N'-(4-fluorobenzyl)-N'-(3,4-ethylenedioxy)benzylaminocarbonyl]-2,6-diaminohexanol] showed a Ki ([3]; Ki) of 5.4 nM.

`CC(C)CCN([C@H](CO)CCCCNC(=O)N(Cc1ccc2c(c1)OCO2)CC(C)C)S(=O)(=O)c1ccc(N)cc1` [Example 104, (2S) 2-N-(4-aminobenzenesulfonyl)-2-N-(3-methylbutyl)-6-N-(N'-isobutyl-N'-piperonylaminocarbonyl)-2,6-diaminohexanol] was tested, and the Ki ([3]; Ki) was 77 nM.

`COc1cccc(CN(Cc2ccc3c(c2)OCO3)C(=S)NCCCC[C@@H](CO)N(CCC(C)C)S(=O)(=O)c2ccc(N)cc2)c1` [Example 105, (2S) 2-N-(4-aminobenzenesulfonyl)-2-N-(3-methylbutyl)-6-N-[N'-(3-methoxybenzyl)-N'-piperonylaminothiocarbonyl]-2,6-diaminohexanol] showed a Ki ([3]; Ki) of 2.6 nM.

`COc1ccc(CN(Cc2ccc3c(c2)OCO3)C(=S)NCCCC[C@@H](CO)N(CCC(C)C)S(=O)(=O)c2ccc(N)cc2)cc1OC` [Example 106, (2S) 2-N-(4-aminobenzenesulfonyl)-2-N-(3-methylbutyl)-6-N-[N'-(3,4-dimethoxybenzyl)-N'-piperonylaminothiocarbonyl]-2,6-diaminohexanol] was tested, and the Ki ([3]; Ki) was 2.9 nM.

`COc1cc(CN(Cc2ccc3c(c2)OCO3)C(=S)NCCCC[C@@H](CO)N(CCC(C)C)S(=O)(=O)c2ccc(N)cc2)cc(OC)c1OC` [Example 107, (2S) 2-N-(4-aminobenzenesulfonyl)-2-N-(3-methylbutyl)-6-N-[N'-(3,4,5-trimethoxybenzyl)-N'-piperonylaminothiocarbonyl]-2,6-diaminohexanol] gave a CCIC50 ([1]; human, 6 days) of 10.7 µM, an EC50 [2] of 680 nM and a Ki ([3]; Ki) of 4.9 nM.

`CC(C)CCN([C@H](CO)CCCCNC(=S)N(Cc1ccc(F)cc1)Cc1ccc2c(c1)OCCO2)S(=O)(=O)c1ccc(N)cc1` [Example 108, (2S) 2-N-(4-aminobenzenesulfonyl)-2-N-(3-methylbutyl)-6-N-[N"(4-fluorobenzyl)-N'-(3,4-ethylenedioxy)benzylaminothiocarbonyl]-2,6-diaminohexanol] was tested, and the Ki ([3]; Ki) was 9.9 nM.

Work on `COc1ccc(CN(Cc2ccc3c(c2)OCO3)C(=S)NCCCC[C@@H](CO)N(CCC(C)C)S(=O)(=O)c2ccc(N)cc2)cc1` [Example 109, (2S) 2-N-(4-aminobenzenesulfonyl)-2-N-(3-methylbutyl)-6-N-[N'-(4-methoxybenzyl)-N'-piperonylaminothiocarbonyl]-2,6-diaminohexanol] yielded a Ki ([3]; Ki) of 3.6 nM.

Work on `COc1cccc(CN(Cc2ccc3c(c2)OCO3)C(=O)NCCCC[C@@H](CO)N(CCC(C)C)S(=O)(=O)c2ccc(N)cc2)c1` [Example 110, (2S) 2-N-(4-aminobenzenesulfonyl)-2-N-(3-methylbutyl)-6-N-[N'-(3-methoxybenzyl)-N'-piperonylaminocarbonyl]-2,6-diaminohexanol] yielded an EC50 [2] of 350 nM and a Ki ([3]; Ki) of 2.2 nM.
